The results in this text go back to US20210308144A1 (priority 2021, published 2021).

For orientation: IC50 means the midpoint of a concentration-inhibition curve.

Data set [1] addresses T1, human aromatase enzyme (human placental microsomes) (Homo sapiens, UniProt P11511).
T1 construct: evaluated against human placental microsomes (aromatase enzyme); from tissue; host or cells: human placenta (microsomes)
T1 sequence (P11511 1-503): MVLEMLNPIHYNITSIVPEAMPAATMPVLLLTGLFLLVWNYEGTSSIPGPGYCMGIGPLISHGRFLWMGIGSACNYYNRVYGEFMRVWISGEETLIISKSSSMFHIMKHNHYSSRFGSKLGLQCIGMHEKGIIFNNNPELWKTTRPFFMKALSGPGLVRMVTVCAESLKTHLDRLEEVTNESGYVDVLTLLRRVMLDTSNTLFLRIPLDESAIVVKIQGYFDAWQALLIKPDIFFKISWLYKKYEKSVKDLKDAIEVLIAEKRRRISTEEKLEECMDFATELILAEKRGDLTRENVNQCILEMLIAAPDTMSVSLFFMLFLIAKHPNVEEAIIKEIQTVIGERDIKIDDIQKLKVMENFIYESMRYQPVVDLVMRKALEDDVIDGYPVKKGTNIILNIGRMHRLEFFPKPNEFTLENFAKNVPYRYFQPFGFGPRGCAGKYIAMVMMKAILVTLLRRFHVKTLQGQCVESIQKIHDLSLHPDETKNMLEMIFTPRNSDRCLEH
The data set is described as follows: Human placental aromatase inhibition assay. Type of data set: biochemical.

Data set [2] concerns BJ (human fibriblast) cell line. The data set is described as follows: Cytotoxicity against BJ (human fibroblast) cell line.
[3] abbreviates: human placental microsomes, testosterone to 17β-estradiol conversion, UPLC, read-out: IC50 against human aromatase.

Where two headings read alike, the source gives them in different places.

Consider `CC1=CC(=O)C=C2CC[C@@H]3[C@H](CC[C@]4(C)C(=O)CC[C@@H]34)[C@@]12C` [Compound 1, atamestane, reference compound], for which, in data set [1] (setting [3]), the IC50 came out at 0.0138 ± 0.0002 µM.

Take `CC1=CC(=O)C=C2CC[C@@H]3[C@H](CC[C@]4(C)C(=O)CC[C@@]34O)[C@@]12C` [Compound 2, 14α-hydroxy-1-methylandrosta-1,4-diene-3,17-dione]: the IC50 in data set [1] (setting [3]) stood at 0.0097 ± 0.00072 µM. Further, the “cytotoxicity against BJ cell line” value in data set [2] is listed as “non-cytotoxic”.

For the molecule `CCCCCCC(=O)O[C@H]1CC[C@H]2[C@@H]3CC[C@H]4CC(=O)[C@H](C)C[C@]4(C)[C@H]3CC[C@]12C` [Compound 3, drostanolone enanthate, reference compound], in data set [1] (setting [3]), the IC50 came out at 0.0064 ± 6e-05 µM. Turning to `CC1=C[C@@]2(C)C(=CC1=O)CC[C@H]1[C@@H]3CC[C@H](O)[C@@]3(C)[C@H](O)C[C@@H]12` [Compound 4, 2-methylandrosta-12β,17β-dihydroxy-1,4-diene-3-one], in data set [1] (setting [3]), the IC50 stood at 0.00423 ± 0.000133 µM. Besides, the “cytotoxicity against BJ cell line” value in data set [2] is reported as “non-cytotoxic”.

In the case of `C[C@@H]1C[C@@]2(C)[C@@H](CC[C@H]3[C@@H]4CC[C@H](O)[C@@]4(C)CC[C@@]32O)CC1=O` [Compound 5, 2α-methyl-9α,17β-dihydroxy-5α-androstan-3-one], the 50% inhibitory concentration (IC50) in data set [1] (setting [3]) was determined as 0.793 ± 0.0299 µM. For the same molecule, the “cytotoxicity against BJ cell line” value in data set [2] is reported as “non-cytotoxic”. The molecule `C=C1C[C@@H]2[C@H]([C@H](O)C[C@]3(C)[C@@H](O)CC[C@@H]23)[C@@]2(C)C=CC(=O)C=C12` [Compound 8, 11α,17β-dihydroxy-6-methylene-androsta-1,4-diene-3-one] showed an IC50 in data set [1] of 12.8 ± 0.844 µM. Moreover, the “cytotoxicity against BJ cell line” value in data set [2] was “non-cytotoxic”.
